{"source": "patent US20220175756A1", "about": "“APPLICATION OF COMBINATION OF QUINOLINE DERIVATIVE AND IMMUNOMODULATOR IN PREPARATION OF ANTITUMOR DRUGS” (CHONGQING PHARMACEUTICAL INDUSTRIAL RESEARCH INSTITUTE CO., …, priority 2019, published 2022)", "system": "CT26 mouse colon carcinoma cell strain", "experiment": "In vivo anti-tumor activity in mouse CT26 colon tumor model", "experimental": "The experimental purposes was to investigate the in vivo anti-tumor effect of the combination of the test compound with a mouse anti-PD-1 antibody against the mouse colon cancer in CT26 tumor model.\nFemale Balb/c mice were subcutaneously inoculated with CT26 mouse colon carcinoma cell strain, and randomly grouped based on their body weight, after inoculation. And, they were administered as follows.\nTo the first group (a control group), the administration was started in the afternoon of the day of vaccination in a way that vehicle 1 (10% DMSO+10% Solutol+80% DDH2O) was administered intragastrically twice a day at a dosage of 0.1 mL/10 g body weight each time, and when the tumor had grown to a volume of about 60 mm^3 after the inoculation, it started to do administration in a way that vehicle 2 (DPBS) was given twice a week through intraperitoneal injection at a dosage of 0.1 mL/10 g body weight at each time.\nTo the second group, when the tumor had grown to a volume of about 60 mm^3 after the inoculation, it started to do administration in a way that anti-mouse PD-1 antibody (RMP1-14, supplied by BioXcell) was given through intraperitoneal injection twice a week at a dosage of 3 mg/kg body weight at each time. […]\nDuring the experiment, the mice were weighed three times a week, and after the tumor formed, the tumor volume was measured three times a week at each time when the body weight was measured, and calculated following the equation: length×width^2/2. Tumor proliferation rate was calculated following the equation: Tumor proliferation rate=Tumor volume in the treatment group/Tumor volume in the control group×100%.\nThe differences between groups were statistically analyzed by Student's t-test, and p<0.05 was considered to be a significant difference."}
{"smiles": "COc1cc2nccc(Oc3ccc(NC(=O)NC4CC4)c(Cl)c3F)c2cc1C(N)=O", "note": "[Example 1]", "values": [{"measurement": "Tumor proliferation rate", "setting": "day 25, Example 1 10 mg/kg intragastrically once a day in combination with anti-mouse PD-1 antibody RMP1-14 3 mg/kg i.p. twice a week, female Balb/c mice, p<0.01", "value": 15.38, "unit": "%"}, {"measurement": "Anti-tumor activity in combination with PD-1 antibody (in words)", "setting": "mouse CT26 tumor model, combination with PD-1 antibody", "value": "significant anti-tumor activity"}, {"measurement": "Effect on anti-tumor effect of PD-1 antibody (in words)", "setting": "tumor volumes on day 25, combination group vs single antibody group, p<0.05", "value": "significantly enhanced anti-tumor effect on PD-1 antibody"}]}
